{"source": "patent US20250206714A1", "about": "“COMPOSITIONS AND METHODS FOR TREATMENT OF INFLAMMATORY DISEASES” (Invea Therapeutics, Inc., priority 2022, published 2025)", "key": {"[1]": {"system": "MDR1 (P-gp)", "test": "in vitro", "parameters": "Papp A→B at 60 min / Papp B→A at 60 min / efflux ratio at 60 min / recovery at 60 min / % recovery Apical concentration-Basal concentration / % recovery Basal concentration-Apical concentration: dose or concentration left out as unconfirmed", "conditions": "dog", "description": "(§1) Digoxin is used as reference and lucifer yellow is used as the integrity marker. […] Papp, efflux ratio and percent recovery are calculated."}, "[2]": {"system": "MDR1", "test": "in vitro", "parameters": "Papp A→B at 60 min / Papp B→A at 60 min / efflux ratio at 60 min / recovery at 60 min / % recovery Apical concentration-Basal concentration / % recovery Basal concentration-Apical concentration: dose or concentration left out as unconfirmed", "conditions": "dog, MDCK-MDR1", "description": "as §1"}, "[3]": {"test": "in vitro", "conditions": "for % rem @ 5 min / % rem @ 15 min / % rem @ 30 min / % rem @ 45 min: 1 µM; for % rem @ 5 min / % rem @ 15 min / % rem @ 30 min / % rem @ 45 min / half-life at 1 µM / microsomal CLint at 1 μM: pH 7.4; for half-life at 1 µM / microsomal CLint at 1 μM: microsomes", "description": "All the tubes were pre-incubated at 37 t 1° C. for 5 min in a shaking water bath. Tubes of NADPH solution (10 mM) were similarly pre-incubated in similar conditions. After pre-incubation, 20 μL NADPH solution (10 mM) was added to the T0, T5, T15, T30, and T45 tubes, and 20 μL of buffer was added to the TControl tube which makes the final concentration to 1 μM respectively. T0 was immediately quenched with 200 μL of quenching solution containing warfarin as internal standard (IS). Similarly, at the end of the incubation period (5, 15, 30, and 45 minutes) of respective tubes, 200 μL of quenching solution containing warfarin as internal standard (IS) was added to each tube to stop the reaction. Resulting samples were centrifuged at 3220 g (relative centrifugal force) for 20 min. Supernatant (200 μL) from each reaction tube was taken for LC-MS/MS analysis."}, "[4]": {"biological_target": "T1, CYP 2C19 (Homo sapiens, UniProt P33261)", "T1 construct": "The experiment was conducted in human liver microsomes; from tissue; host or cells: human liver microsomes", "T1 sequence (P33261 whole entry)": "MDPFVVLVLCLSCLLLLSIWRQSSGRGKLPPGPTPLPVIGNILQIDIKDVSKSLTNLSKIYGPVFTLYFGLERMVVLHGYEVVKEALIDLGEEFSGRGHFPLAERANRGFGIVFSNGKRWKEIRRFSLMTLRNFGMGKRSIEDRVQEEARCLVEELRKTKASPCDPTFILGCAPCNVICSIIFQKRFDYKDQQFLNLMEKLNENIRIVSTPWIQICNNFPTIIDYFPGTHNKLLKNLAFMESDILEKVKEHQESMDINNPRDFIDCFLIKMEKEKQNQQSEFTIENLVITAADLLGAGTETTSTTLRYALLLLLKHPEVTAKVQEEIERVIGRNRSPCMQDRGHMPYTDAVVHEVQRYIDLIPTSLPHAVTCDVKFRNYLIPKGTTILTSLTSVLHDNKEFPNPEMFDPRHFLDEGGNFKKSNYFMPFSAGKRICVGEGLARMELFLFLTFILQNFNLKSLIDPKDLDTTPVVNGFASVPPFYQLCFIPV", "test": "Metabolic stability in human liver microsomes with CYP 2C19 inhibitor Nootkatone", "type": "in vitro ADME", "conditions": "1 μM + Nootkatone (20 μM)"}, "[5]": {"biological_target": "T2, CYP 1A2 (Homo sapiens, UniProt P05177)", "T2 construct": "The experiment was conducted in human liver microsomes; from tissue; host or cells: human liver microsomes", "T2 sequence (P05177 1-516)": "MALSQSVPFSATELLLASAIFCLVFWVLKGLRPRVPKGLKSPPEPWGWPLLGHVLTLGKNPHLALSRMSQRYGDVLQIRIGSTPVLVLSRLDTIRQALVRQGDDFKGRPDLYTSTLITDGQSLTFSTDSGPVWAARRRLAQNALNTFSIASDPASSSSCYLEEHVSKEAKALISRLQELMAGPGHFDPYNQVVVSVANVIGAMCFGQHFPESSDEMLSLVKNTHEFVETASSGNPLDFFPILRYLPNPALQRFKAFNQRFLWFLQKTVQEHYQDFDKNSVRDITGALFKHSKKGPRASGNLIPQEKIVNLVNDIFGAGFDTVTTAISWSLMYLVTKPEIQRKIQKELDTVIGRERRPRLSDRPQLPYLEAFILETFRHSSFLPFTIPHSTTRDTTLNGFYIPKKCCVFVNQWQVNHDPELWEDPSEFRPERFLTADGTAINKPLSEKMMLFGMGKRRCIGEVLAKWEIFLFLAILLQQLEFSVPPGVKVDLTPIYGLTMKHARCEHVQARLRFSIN", "test": "Metabolic stability in human liver microsomes with CYP 1A2 inhibitor Furafylline", "type": "in vitro ADME", "conditions": "1 μM + Furafylline (20 μM)"}}, "data": [{"smiles": "O=C1Nc2ccccc2N(C(=O)CCl)c2ccc(F)cc21", "note": "[Compound 6, 5-(2-chloroacetyl)-2-fluoro-5,10-dihydro-11H-dibenzo[b,e][1,4]diazepin-11-one]", "values": [{"measurement": "efflux ratio at 60 min", "setting": "[1]; MDCK-MDR1", "result": 1.22}, {"measurement": "recovery at 60 min", "setting": "[1]; MDCK-MDR1, % recovery Apical concentration-Basal concentration", "result": 49.1, "unit": "%"}, {"measurement": "recovery at 60 min", "setting": "[1]; MDCK-MDR1, % recovery Basal concentration-Apical concentration", "result": "~100", "unit": "%"}, {"measurement": "Papp A→B at 60 min", "setting": "[2]", "result": 26, "unit": "×10⁻⁶ cm/s"}, {"measurement": "Papp A→B at 60 min, 5 µM", "setting": "[2]", "result": 26, "unit": "×10⁻⁶ cm/s"}, {"measurement": "Papp B→A at 60 min", "setting": "[2]", "result": 31.6, "unit": "×10⁻⁶ cm/s"}, {"measurement": "efflux ratio at 60 min, 5 µM", "setting": "[2]", "result": "< 2"}, {"measurement": "stability / metabolism by liver microsomes (in words)", "setting": "[3]", "result": "medium to highly stability"}, {"measurement": "% rem @ 5 min", "setting": "[3]; human", "result": 93.5, "unit": "%"}, {"measurement": "% rem @ 15 min", "setting": "[3]; human", "result": 92.9, "unit": "%"}, {"measurement": "% rem @ 30 min", "setting": "[3]; human", "result": 91.3, "unit": "%"}, {"measurement": "% rem @ 45 min", "setting": "[3]; human", "result": 67.8, "unit": "%"}, {"measurement": "half-life at 1 µM", "setting": "[3]; human", "result": 1.6, "unit": "h"}, {"measurement": "microsomal CLint at 1 μM", "setting": "[3]; human", "result": 14.4, "unit": "µL/min/mg"}, {"measurement": "% rem @ 5 min", "setting": "[3]; mouse", "result": "~100", "unit": "%"}, {"measurement": "% rem @ 15 min", "setting": "[3]; mouse", "result": "~100", "unit": "%"}, {"measurement": "% rem @ 30 min", "setting": "[3]; mouse", "result": 79.3, "unit": "%"}, {"measurement": "% rem @ 45 min", "setting": "[3]; mouse", "result": 59.8, "unit": "%"}, {"measurement": "half-life at 1 µM", "setting": "[3]; mouse", "result": 0.95, "unit": "h"}, {"measurement": "microsomal CLint at 1 μM", "setting": "[3]; mouse", "result": 24.3, "unit": "µL/min/mg"}, {"measurement": "% rem @ 5 min", "setting": "[3]; rat", "result": 98.7, "unit": "%"}, {"measurement": "% rem @ 15 min", "setting": "[3]; rat", "result": 83.1, "unit": "%"}, {"measurement": "% rem @ 30 min", "setting": "[3]; rat", "result": 75.3, "unit": "%"}, {"measurement": "% rem @ 45 min", "setting": "[3]; rat", "result": 74.0, "unit": "%"}, {"measurement": "half-life at 1 µM", "setting": "[3]; rat", "result": 1.58, "unit": "h"}, {"measurement": "microsomal CLint at 1 μM", "setting": "[3]; rat", "result": 14.6, "unit": "µL/min/mg"}, {"measurement": "% rem @ 5 min", "setting": "[4]", "result": "~100", "unit": "%"}, {"measurement": "% rem @ 15 min", "setting": "[4]", "result": 98.6, "unit": "%"}, {"measurement": "% rem @ 30 min", "setting": "[4]", "result": 84.6, "unit": "%"}, {"measurement": "% rem @ 45 min", "setting": "[4]", "result": 58.7, "unit": "%"}, {"measurement": "half-life at 1 µM", "setting": "[4]; pH 7.4, with Nootkatone 20 μM", "result": 0.91, "unit": "h"}, {"measurement": "microsomal CLint at 1 μM", "setting": "[4]; pH 7.4, with Nootkatone 20 μM, read-out: mCLint", "result": 25.4, "unit": "µL/min/mg"}, {"measurement": "% rem @ 5 min", "setting": "[5]", "result": 96.8, "unit": "%"}, {"measurement": "% rem @ 15 min", "setting": "[5]", "result": 87.7, "unit": "%"}, {"measurement": "% rem @ 30 min", "setting": "[5]", "result": 66.9, "unit": "%"}, {"measurement": "% rem @ 45 min", "setting": "[5]", "result": 63.2, "unit": "%"}, {"measurement": "half-life at 1 µM", "setting": "[5]; pH 7.4, with Furafylline 20 μM", "result": 1.03, "unit": "h"}, {"measurement": "microsomal CLint at 1 μM", "setting": "[5]; pH 7.4, with Furafylline 20 μM, read-out: mCLint", "result": 22.5, "unit": "µL/min/mg"}]}]}
